Measured values: patent publication US12202790B2, “Sulfonamide derivatives having selective Nox inhibiting activity” (GLUCOX BIOTECH AB, priority 2018, dated 2025)

Assays:
[1] = system: rat lens epithelial explants; test: qRT-PCR gene expression analysis in TGFβ-treated rat lens epithelial explants; type: cell-based; conditions: 48 hours of culture, Example 11 2.4 μM, Example 17 0.3 μM; for aSMA expression (mRNA): Example 17 at a higher degree than Example 11
Procedure: Lens epithelial explants were prepared as previously described (Wang Q, et al., Investigative ophthalmology & visual science. 2010; 51(7):3599-610) and cultured in Medium 199 (M199) with Earle's salts (Life Technologies, USA), supplemented with 50 μg/mL L-glutamine, 50 IU/mL penicillin/50 μg/mL streptomycin (Thermo Scientific, USA), 2.5 μg/mL Amphostat B (Thermo Scientific, USA) and 0.1% bovine serum albumin (BSA) (Sigma, USA). M199 was equilibrated at 37° C., 5% CO2. To induce EMT, recombinant TGF-β2 was added to media in each culture dish at a working concentration of […] (R&D Systems, USA). Prior to the addition of TGF-β2, some explants were pre-treated for 30 minutes with Example 11 or Example 17, at working concentrations of 2.4 μM and 0.3 μM, respectively. The progression of EMT in live cells was observed and captured using phase-contrast microscopy (Olympus CK2, Japan) and a digital camera (Leica DFC-280, Germany). Percentage cell loss quantification was performed using the thresholding function of ImageJ (NIH), such that cells could be distinguished from bare lens capsule.
Quantitative RT-PCR (qRT-PCR) gene expression analysis was performed as previously described (Shu D, et al., Investigative ophthalmology & visual science. 2017; 58(2):781-96.).
For data analysis, the 2^-ΔΔCt method was used to estimate the relative fold change in gene expression. Using the 2^-ΔΔCt method, the gene of interest was quantified relative to, firstly, the housekeeping gene, GAPDH and, secondly, to relative gene expression in untreated explants.

Sprague-Dawley rats = test: Streptozotocin rat model of diabetic retinopathy; type: in vivo; conditions: 10 mg/ml eye drops for two weeks, STZ diabetic rats
Procedure: Animals were maintained on a 12 h light-dark cycle, at 22-25° C. Food and water were available ad libitum. Diabetes was induced by a single dose of streptozotocin (STZ, 70 mg/kg, ip, Sigma-Aldrich, Germany) dissolved in sodium citrate (0.1M) buffer (diabetic group) after a fasting period of 8-12 hours. Animals with blood glucose levels>350 mg/d1, after 72 hours post-STZ injection were considered diabetic. Both male and female Sprague-Dawley rats were used in the study. Three experimental groups were employed, namely Control (n=6), Diabetic (n=7), and Diabetic-treated group (n=6). Example 17 (10 mg/ml) dissolved in DMSO was administered as eye drops, for two weeks, starting two (2) days after STZ administration. Animals were euthanized 24 hours after the last treatment, and their eyes were removed. […]
Antibodies raised against the macroglia marker glial fibrillary acidic protein (GFAP) were employed. Quantification using the public domain ImageJ 1.43m software was employed for the mean gray value [integrated density (fluorescence density)/delineated area] calculated and expressed as a percentage of the mean gray value of the control. Statistical analysis of the data was performed using GraphPad Prism v5.0 (San Diego, Calif., USA) and differences between groups were evaluated by one-way analysis of variance (ANOVA) with Neuman-Keuls. […]

C57B16/J mice = test: Mouse model of acute ischemic stroke by transient middle cerebral artery occlusion (tMCAO); type: in vivo; conditions: 2.56 mg/kg ip, 6 times once per hour, from 1 hour after reperfusion or 30 min before reperfusion, 24 h
Procedure: A mouse model of acute ischemic stroke by transient middle cerebral artery occlusion (tMCAO) was used. The model has been described by Kleinschnitz C, et al. 2010, J Exp Med 203(3):513-518. C57B16/J mice were anesthetized with isoflurane (0.8% in oxygen). The animal was placed on a heating-pad, and rectal temperature was maintained at 37.0° C. using a servo-controlled rectal probe-heating pad (Cibertec, Spain). Transient cerebral ischemia was induced using an intraluminal filament technique. Using a surgical microscope (Tecnoscopio OPMI pico, Carl Zeiss, Meditec Iberia SA, Spain), a midline neck incision was made and the right common and external carotid arteries were isolated and permanently ligated. […]
After sacrificing the mice (24 h reperfusion), brains were quickly removed and cut in four 2-mm thick coronal sections using a mouse brain slice matrix (Harvard Apparatus, Spain). […] Indirect infarct volumes were calculated by volumetry (ImageJ software, National Institutes of Health, USA) according to the following equation: Vindirect (mm^3)=Vinfarct×(1−(Vih−Vch)/Vch), where the term (Vih−Vch) represents the volume difference between the ischemic hemisphere and the control hemisphere and (Vih−Vch)/Vch expresses this difference as a percentage of the control hemisphere (FIGS. 7 and 9).

Human islet cells = test: Effects on human islet cell viability; type: cell-based; conditions: 48 h, compound 1 μM
Procedure: Human islet cells were incubated at control condition, with the cytokines IL-1β (20 ng/ml)+IFN-γ (20 ng/ml), or with palmitate (1.5 mM+2% BSA)+high glucose (20 mM) (PH) for 2 days with or without Nox1 inhibitor ML-171 (2 μM), Nox2 inhibitor Phos-I2 (2 μM) or Example 17 (1 μM). Islets were photographed in an inverted fluorescence microscope and the intensities of red (PI) and blue (Bisbenzimide) signals were quantified using Image J software. Results are indicated as mean±S.E.M for 7 human islet donors.

Structure (SMILES) | TGFβ-driven upregulation of Col1A and Fn (mRNA) [1] | aSMA expression (mRNA) [1] | GFAP immunoreactivity in retina (Sprague-Dawley rats) | brain damage (TTC stained coronal brain sections) (C57B16/J mice) | infarct volume (C57B16/J mice; compared to control animals) | human islet cell death with cytokines (Human islet cells; IL-1β (20 ng/ml)+IFN-γ (20 ng/ml)) | human islet cell death with high glucose+palmitate (Human islet cells; palmitate (1.5 mM)+high glucose (20 mM))
Cc1ccccc1CCNS(=O)(=O)c1c(C)cccc1Cl [Example 11, 2-chloro-6-methyl-N-[2-(2-methylphenyl)ethyl]benzene-1-sulfonamide] | downregulate the TGFβ-driven upregulation of Col1A and Fn | downregulate aSMA expression |  |  |  |  | 
Cc1ccccc1CCNS(=O)(=O)c1c(Cl)cc(Br)cc1Cl [Example 17, 4-bromo-2,6-dichloro-N-[2-(2-methylphenyl)ethyl]benzene-1-sulfonamide] | downregulate the TGFβ-driven upregulation of Col1A and Fn | downregulate aSMA expression | attenuated the diabetes induced increase in GFAP immunoreactivity | significant reduction in brain damage | substantial reduction of infarct volume | protected both against cytokines and high glucose+palmitate | protected both against cytokines and high glucose+palmitate
